Laboratory results as given in article PMC7312353, “Lipid Raft Destabilization Impairs Mouse TRPA1 Responses to Cold and Bacterial Lipopolysaccharides” (International Journal of Molecular Sciences, 2020).

Target: mouse TRPA1 (mTRPA1), Transient receptor potential ankyrin 1 cation channel (Mus musculus, UniProt Q8BLA8)
Test: Fura-2 ratiometric Ca2+ imaging, concentration-response in CHO-K1 cells stably transfected with mTRPA1
Type: cell-based

Sequence of mouse TRPA1 (mTRPA1), Transient receptor potential ankyrin 1 cation channel (Q8BLA8 whole entry): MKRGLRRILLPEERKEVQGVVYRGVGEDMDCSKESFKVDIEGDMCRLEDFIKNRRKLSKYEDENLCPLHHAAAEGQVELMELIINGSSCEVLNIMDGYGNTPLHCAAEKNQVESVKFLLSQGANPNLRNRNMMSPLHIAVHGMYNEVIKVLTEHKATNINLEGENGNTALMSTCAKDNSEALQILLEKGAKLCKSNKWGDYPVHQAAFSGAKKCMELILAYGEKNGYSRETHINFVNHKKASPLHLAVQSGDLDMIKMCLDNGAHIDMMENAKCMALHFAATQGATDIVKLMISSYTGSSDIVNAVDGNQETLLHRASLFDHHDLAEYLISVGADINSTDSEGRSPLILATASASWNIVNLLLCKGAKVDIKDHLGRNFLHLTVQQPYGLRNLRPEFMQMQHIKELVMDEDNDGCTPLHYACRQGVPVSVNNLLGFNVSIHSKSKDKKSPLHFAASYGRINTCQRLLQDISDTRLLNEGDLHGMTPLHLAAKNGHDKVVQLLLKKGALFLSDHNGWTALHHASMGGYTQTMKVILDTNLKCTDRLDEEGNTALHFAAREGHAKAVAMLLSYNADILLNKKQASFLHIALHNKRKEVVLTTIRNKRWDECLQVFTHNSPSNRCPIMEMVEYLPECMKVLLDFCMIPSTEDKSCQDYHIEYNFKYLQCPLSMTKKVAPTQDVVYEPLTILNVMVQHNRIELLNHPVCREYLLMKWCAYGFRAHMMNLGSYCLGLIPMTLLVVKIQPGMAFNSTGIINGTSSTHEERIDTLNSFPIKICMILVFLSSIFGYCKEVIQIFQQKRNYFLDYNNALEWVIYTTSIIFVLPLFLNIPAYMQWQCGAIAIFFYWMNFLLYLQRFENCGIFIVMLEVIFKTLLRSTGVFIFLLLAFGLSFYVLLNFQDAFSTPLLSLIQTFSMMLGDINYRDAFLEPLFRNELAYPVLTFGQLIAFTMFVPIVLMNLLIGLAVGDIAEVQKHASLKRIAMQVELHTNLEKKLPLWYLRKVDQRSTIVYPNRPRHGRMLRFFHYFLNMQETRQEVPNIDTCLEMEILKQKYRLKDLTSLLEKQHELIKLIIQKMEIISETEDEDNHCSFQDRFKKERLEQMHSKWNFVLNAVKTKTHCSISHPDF

C=CCN=C=S [AITC, allyl isothiocyanate]
EC50: 4.6 ± 1.1 µM
